Experimental data: patent publication US9345904B2, “Photodynamic therapy using photosensitizing agent or 5-aminolevulinic acid” (SBI Pharmaceuticals Co., Ltd., priority 2011, dated 2016)

Assays:
HeLa cells = experiment: Cancer therapeutic effect of ALA-PDT by wavelength, hematoxylin-eosin staining of subcutaneous HeLa tumors; type: in vivo, SCID mice; settings: for tumor tissue histology (effect of ALA-PDT): 750 mg/kg b.w. ALA tail vein, 100 J/cm^2, after 4 hours, tissue taken following day
Description: 5×10^5 HeLa cells were subcutaneously injected into SCID mice of the mouse numbers 1 to 3. […] After maintaining the mice until the size of tumors reaches that described in Table 1, 750 mg/kg b.w. of ALA was injected into the tail vein of the mice of numbers 1 and 2. After 4 hours, the mouse of number 1 was irradiated with LED light having a peak at a wavelength of 517 nm and the mouse of number 2 was irradiated with LED light having a peak at a wavelength of 629 nm. The SCID mice irradiated with light listed above were each anesthetized on the following day; a portion containing HeLa cells was cut out, fixed in formaldehyde, subjected to dehydration treatment with ethanol and xylene, and then embedded in paraffin; and a small piece thinly sliced into a thickness of 5 μm was stained with hematoxylin-eosin to observe the tissue under a light microscope.

MKN45 cells = experiment: Cell-killing effect of ALA-PDT by wavelength, MTT assay survival rate; type: cell-based
Description: MKN45 cells (purchased from Riken Cell Bank) cultured in a 35-mm dish were cultured for 4 hours in the presence of 0.168 mg/mL ALA. Then, 5 mL of a hemoglobin solution was dispensed into a 60-mm dish, placed on the 35-mm dish in which the culture was performed in the presence of ALA, and irradiated with light. Light shielding by hemoglobin was provided to imitate the inside of a living body because hemoglobin is considered to be a leading cause of the inhibition of light invasion in photodynamic therapy. The culture was irradiated to 4.5 J/cm^2 (5 mW/cm^2, 15 min.) with light having a peak at 402 nm, 502 nm, 517 nm, 529 nm, or 636 nm. […]
The survival rate of cells after light irradiation was measured using an MTT assay method. […] Thereafter, 200 μL thereof was dispensed into a 96-well plate and measured for absorbance at 570 nm using a plate reader (from Bio-Rad). The survival rate was measured from the absorbance of each sample and expressed relative to the absorbance after a medium without cultured cells were subjected to these procedures, set to 0%, and the absorbance after such cells cultured as control were subjected to these procedures, set to 100%. Optical power density with light shielding by hemoglobin was measured using Power Meter (from Scientex, Inc.); the results are shown in FIG. 3.

## NCC(=O)CCC(=O)O [ALA, 5-aminolevulinic acid]
HeLa cells; mouse number 1 (517 nm) versus mouse number 2 (629 nm), tumors about 4 mm in height
  effect of ALA-PDT at 517 nm compared with 629 nm (cell density, amount of blebs): the effect of ALA-PDT was higher
HeLa cells; mouse number 1, LED 517 nm
  tumor tissue histology (effect of ALA-PDT): the condensation of the cytoplasm, the disappearance of the nucleus, and clearance between cells due to the generation of blebs were observed
HeLa cells; mouse number 2, LED 629 nm
  tumor tissue histology (effect of ALA-PDT): the condensation of the cytoplasm, the disappearance of the nucleus, and clearance between cells due to the generation of blebs were observed
MKN45 cells; with light shielding by hemoglobin, lower optical power densities at 502-529 nm
  cell-killing effect of lights at 502 nm, 517 nm and 529 nm relative to light at 636 nm: comparable cell-killing effects compared to light at 636 nm
MKN45 cells; without light shielding by hemoglobin, 0.168 mg/mL ALA 4 hours, 4.5 J/cm^2, lights with peak at 402, 502, 517, 529 or 636 nm compared
  cell-killing effect of ALA-PDT: stronger in the order of lights having a peak at 402 nm, 502 nm, 517 nm, 529 nm, or 636 nm
